According to patent US4081441A, “Antibacterial agents” (priority 1977, dated 1978):
Like-named read-outs stand apart in the source and are kept apart here.

Key:
[1] = system: Cl. difficile; assay: M.I.C. against anaerobic bacteria, Cl. difficile; format: cell-based; conditions: Clostridioides difficile
[2] = system: Pseudomonas aeruginosa; assay: In vitro bactericidal synergism, broth dilution checkerboard; format: cell-based; conditions: for MBC: Pseudomonas aeruginosa, drug alone, read-out: Minimum Bactericidal Concentration
[3] = system: Cl. septicum; assay: M.I.C. against anaerobic bacteria, Cl. septicum; format: cell-based; conditions: Clostridium septicum; strain A21869
[4] = system: Pseudomonas aeruginosa; assay: Minimum Inhibitory Concentration, agar dilution, overnight incubation at 37° C.; format: cell-based; conditions: Pseudomonas aeruginosa
From the text: A carbenicillin sample was also run for comparative purposes.

[5] = system: Pseudomonas aeruginosa; assay: Minimum Bactericidal Concentration, inoculum 10^5 cells/ml., at least 99.9% kill; format: cell-based
From the text: The effect of increased inoculum size on the bactericidal activity of BL-P1908 was investigated by a second test in which an inoculum size of 10^5 cells/ml. was used and the M.B.C. was defined as the lowest concentration of antibiotics in mcg./ml. needed to kill at least 99.9% of viable Pseudomonas cells.

[6] = system: Bacteroides fragilis; assay: M.I.C. against anaerobic bacteria, Bacteroides fragilis; format: cell-based
[7] = system: Pseudomonas aeruginosa; assay: animal or person; conditions: in Mus musculus, im
[8] = system: Cl. perfringens; assay: microbe, parasite or virus in culture; format: cell-based; conditions: Clostridium perfringens
[9] = system: Cl. acidiurici; assay: M.I.C. against anaerobic bacteria, Cl. acidiurici; format: cell-based; conditions: strain A9560
[10] = system: Pseudomonas aeruginosa; assay: Minimum Bactericidal Concentration, inoculum 10^4 cells/ml., at least 99% kill; format: cell-based
Procedure: The bactericidal in vitro activity of sodium D(-)-6-(α-(1,2,4-triazine-3,5-dione-6-carboxamido)-4-hydroxyphenylacetamido)penicillanate (BL-P1908) against several strains of Pseudomonas aeruginosa was determined under two sets of conditions. In one test the Minimum Bactericidal Concentrations (M.B.C.) were determined using an inoculum size of 10^4 cells/ml. and the M.B.C. was defined as the lowest concentration of antibiotic in mcg./ml. needed to kill at least 99% of the viable Pseudomonas cells.

[11] = Mouse blood (plasma) antibiotic levels after single intramuscular dose; format: in vivo; conditions: im, 40 mg/kg, mice, 40 mg./kg. i.m.; for concentration at 0.25 h: 15 min.; for concentration at 0.5 h: 30 min.; for concentration at 1 h: 60 min.; for concentration at 1.5 h: 90 min.
Procedure: Plasma antibiotic levels from mice administered a single intramuscular dose of 40 mg./kg. of BL-[…] or carbenicillin are shown in the following table.

[12] = system: Cl. ramosum; assay: M.I.C. against anaerobic bacteria, Cl. ramosum; format: cell-based; conditions: Thomasclavelia ramosa
[13] = system: Cl. cylindrosporum; assay: M.I.C. against anaerobic bacteria, Cl. cylindrosporum; format: cell-based; conditions: strain A9562
[14] = read-out: PD50 /treatment, P. aeruginosa A9843A, challenge 1 × 10^4, i.m., at 0 and 2 hours
[15] = read-out: PD50 /treatment, P. aeruginosa A9843A, challenge 2 × 10^4, i.m., at 0 and 2 hours
[16] = read-out: PD50 /treatment, P. aeruginosa A9843A, challenge 3 × 10^4, i.m., at 0 and 2 hours
[17] = read-out: PD50 /treatment, P. aeruginosa A20599, challenge 3 × 10^4, i.m., at 0 and 2 hours
[18] = read-out: PD50 /treatment, P. aeruginosa A20599, challenge 6 × 10^4, i.m., at 0 and 2 hours
[19] = Ave. of Tests 1 and 2, read-out: Blood Level
[20] = Test 1 (Ave. of 6 mice tested), read-out: Blood Level
[21] = Test 2 (Ave. of 8 mice tested), read-out: Blood Level

CC1(C)S[C@@H]2[C@H](NC(=O)[C@H](NC(=O)c3n[nH]c(=O)[nH]c3=O)c3ccc(O)cc3)C(=O)N2[C@H]1C(=O)O [BL-P1908, sodium D(-)-6-(α-(1,2,4-triazine-3,5-dione-6-carboxamido)-4-hydroxyphenylacetamido)penicillanate]
MIC ([1]; strain A21675): 2 µg/mL | MIC ([1]; strain A21972): 4 µg/mL | MBC ([2]; strain A20552): 500 µg/mL | MBC ([2]; strain A21509): 500 µg/mL | MBC ([2]; strain A21510): 100 µg/mL | strain sensitivity ([2]; strain A9843A): sensitive | strain sensitivity ([2]; strain A20480): resistant | strain sensitivity ([2]; strain A20552): sensitive | strain sensitivity ([2]; strain A20620): resistant | strain sensitivity ([2]; strain A21509): sensitive | strain sensitivity ([2]; strain A21510): sensitive | MIC [3]: 1 µg/mL | MIC ([4]; strain A9502): 2 µg/mL | MIC ([4]; strain A9827): 1 µg/mL | MIC ([4]; strain A9910): 1 µg/mL | MIC ([4]; strain A9923): 2 µg/mL | MIC ([4]; strain A9924): 2 µg/mL | MIC ([4]; strain A9925): 1 µg/mL | MIC ([4]; strain A9926): 1 µg/mL | MIC ([4]; strain A9930): 2 µg/mL | MIC ([4]; strain A9931): 1 µg/mL | MIC ([4]; strain A15150): 2 µg/mL | MIC ([4]; strain A15151): 8 µg/mL | MIC ([4]; strain A15194): 4 µg/mL | MIC ([4]; strain A15195): 2 µg/mL | MIC ([4]; strain A15196): 2 µg/mL | MIC ([4]; strain A20125): 2 µg/mL | MIC ([4]; strain A20126): 0.5 µg/mL | MIC ([4]; strain A20127): 1 µg/mL | MIC ([4]; strain A20128): 1 µg/mL | MIC ([4]; strain A20129): 1 µg/mL | MIC ([4]; strain A20130): 1 µg/mL | MIC ([4]; strain A20227): 0.5 µg/mL | MIC ([4]; strain A20228): 1 µg/mL | MIC ([4]; strain A20546): 2 µg/mL | MIC ([4]; strain A20557): 4 µg/mL | MIC ([4]; strain A20574): 0.5 µg/mL | MIC ([4]; strain A20602): 2 µg/mL | MIC ([4]; strain A20616): 1 µg/mL | MIC ([4]; strain A20641): 0.5 µg/mL | MIC ([4]; strain A20717): 4 µg/mL | MIC ([4]; strain A20726): 1 µg/mL | MIC ([4]; strain A21336): 2 µg/mL | MBC ([5]; strain 9843A): 500 µg/mL | MBC ([5]; strain 9910): 500 µg/mL | MBC ([5]; strain 9926): 250 µg/mL | MBC ([5]; strain 20126): 32 µg/mL | MBC ([5]; strain 20128): 16 µg/mL | MBC ([5]; strain 20227): 4 µg/mL | MBC ([5]; strain 20228): 250 µg/mL | MBC ([5]; strain 20546): 500 µg/mL | MBC ([5]; strain 20557): 1000 µg/mL | MBC ([5]; strain 20574): > 1000 µg/mL | MBC ([5]; strain 20602): 1000 µg/mL | MBC ([5]; strain 20616): 1000 µg/mL | MBC ([5]; strain 20641): 1000 µg/mL | MBC ([5]; strain 20717): > 1000 µg/mL | MBC ([5]; strain 20726): 1000 µg/mL | MBC ([5]; strain 21336): 1000 µg/mL | MIC ([6]; strain A20920): 1 µg/mL | MIC ([6]; strain A20926): 2 µg/mL | MIC ([6]; strain A20927-1): 1 µg/mL | MIC ([6]; strain A20930): 16 µg/mL | MIC ([6]; strain A20933): 8 µg/mL | MIC ([6]; strain A20934): 4 µg/mL | MIC ([6]; strain A20935): 1 µg/mL | MIC ([6]; strain A21870): 16 µg/mL | MIC ([6]; strain A21871): 16 µg/mL | MIC ([6]; strain A21872): 16 µg/mL | MIC ([6]; strain A21875): 4 µg/mL | MIC ([6]; strain A22053): 8 µg/mL | MIC ([6]; strain A27020): 16 µg/mL | ED50 [7, 14]: 4.8 mg/kg | ED50 [7, 15]: 2.5 mg/kg | ED50 [7, 16]: 11 mg/kg | ED50 [7, 17]: 5.4 mg/kg | ED50 [7, 18]: 9.6 mg/kg | MIC ([8]; strain A21873): 0.13 µg/mL | MIC ([8]; strain A21874): 0.13 µg/mL | MIC ([8]; strain A21907): 0.13 µg/mL | MIC [9]: 1 µg/mL | MBC ([10]; strain 9843A): 63 µg/mL | MBC ([10]; strain 9910): 1 µg/mL | MBC ([10]; strain 9926): 2 µg/mL | MBC ([10]; strain 20126): 2 µg/mL | MBC ([10]; strain 20128): 2 µg/mL | MBC ([10]; strain 20227): 2 µg/mL | MBC ([10]; strain 20228): 8 µg/mL | MBC ([10]; strain 20546): 1 µg/mL | MBC ([10]; strain 20557): 16 µg/mL | MBC ([10]; strain 20574): 2 µg/mL | MBC ([10]; strain 20616): 2 µg/mL | MBC ([10]; strain 20641): 4 µg/mL | MBC ([10]; strain 20717): 63 µg/mL | MBC ([10]; strain 20726): 2 µg/mL | MBC ([10]; strain 21336): 2 µg/mL | concentration at 0.25 h [11, 19]: 26700 ng/mL | concentration at 0.25 h [11, 20]: 24900 ng/mL | concentration at 0.25 h [11, 21]: 28400 ng/mL | concentration at 0.5 h [11, 19]: 17300 ng/mL | concentration at 0.5 h [11, 20]: 19400 ng/mL | concentration at 0.5 h [11, 21]: 15100 ng/mL | concentration at 1 h [11, 19]: 5300 ng/mL | concentration at 1 h [11, 20]: 7500 ng/mL | concentration at 1 h [11, 21]: 3000 ng/mL | concentration at 1.5 h [11, 19]: < 2900 ng/mL | concentration at 1.5 h [11, 20]: < 3900 ng/mL | concentration at 1.5 h [11, 21]: < 1800 ng/mL | MIC ([12]; strain A21883): 0.25 µg/mL | MIC ([12]; strain A21970): 2 µg/mL | MIC [13]: 16 µg/mL

CC1(C)S[C@@H]2[C@H](NC(=O)[C@H](NC(=O)c3n[nH]c(=S)[nH]c3=O)c3ccc(O)cc3)C(=O)N2[C@H]1C(=O)O [BL-P1937, sodium D(-)-6-(α-(1,2,4-triazine-3-thione-5-one-6-carboxamido)-4-hydroxyphenylacetamido)-penicillanate]
MIC ([1]; strain A21675): 4 µg/mL | MIC ([1]; strain A21972): 4 µg/mL | MIC [3]: 1 µg/mL | MIC ([6]; strain A20920): 0.5 µg/mL | MIC ([6]; strain A20926): 2 µg/mL | MIC ([6]; strain A20927-1): 1 µg/mL | MIC ([6]; strain A20930): 16 µg/mL | MIC ([6]; strain A20933): 4 µg/mL | MIC ([6]; strain A20934): 4 µg/mL | MIC ([6]; strain A20935): 2 µg/mL | MIC ([6]; strain A21870): 1 µg/mL | MIC ([6]; strain A21871): 2 µg/mL | MIC ([6]; strain A21872): 16 µg/mL | MIC ([6]; strain A21875): 8 µg/mL | MIC ([6]; strain A22053): 2 µg/mL | MIC ([6]; strain A27020): 8 µg/mL | ED50 [7, 14]: 11 mg/kg | ED50 [7, 15]: 5.4 mg/kg | ED50 [7, 16]: 11 mg/kg | ED50 [7, 17]: ~13 mg/kg | ED50 [7, 18]: 22 mg/kg | MIC ([8]; strain A21873): 0.063 µg/mL | MIC ([8]; strain A21874): 0.13 µg/mL | MIC ([8]; strain A21907): 0.25 µg/mL | MIC [9]: 1 µg/mL | MIC ([12]; strain A21883): 0.25 µg/mL | MIC ([12]; strain A21970): 2 µg/mL | MIC [13]: 0.25 µg/mL
